# According to patent US11572590B2, “Methods for evaluating tumor cell spheroids using 3D microfluidic cell culture device” (Dana-Farber Cancer Institute, Inc., priority 2017, dated 2023):
# Where two headings read alike, the source gives them in different places.
# Target: T1, off-target kinases (Homo sapiens, UniProt Q9NRM7)
# T1 sequence (Q9NRM7 1-1088): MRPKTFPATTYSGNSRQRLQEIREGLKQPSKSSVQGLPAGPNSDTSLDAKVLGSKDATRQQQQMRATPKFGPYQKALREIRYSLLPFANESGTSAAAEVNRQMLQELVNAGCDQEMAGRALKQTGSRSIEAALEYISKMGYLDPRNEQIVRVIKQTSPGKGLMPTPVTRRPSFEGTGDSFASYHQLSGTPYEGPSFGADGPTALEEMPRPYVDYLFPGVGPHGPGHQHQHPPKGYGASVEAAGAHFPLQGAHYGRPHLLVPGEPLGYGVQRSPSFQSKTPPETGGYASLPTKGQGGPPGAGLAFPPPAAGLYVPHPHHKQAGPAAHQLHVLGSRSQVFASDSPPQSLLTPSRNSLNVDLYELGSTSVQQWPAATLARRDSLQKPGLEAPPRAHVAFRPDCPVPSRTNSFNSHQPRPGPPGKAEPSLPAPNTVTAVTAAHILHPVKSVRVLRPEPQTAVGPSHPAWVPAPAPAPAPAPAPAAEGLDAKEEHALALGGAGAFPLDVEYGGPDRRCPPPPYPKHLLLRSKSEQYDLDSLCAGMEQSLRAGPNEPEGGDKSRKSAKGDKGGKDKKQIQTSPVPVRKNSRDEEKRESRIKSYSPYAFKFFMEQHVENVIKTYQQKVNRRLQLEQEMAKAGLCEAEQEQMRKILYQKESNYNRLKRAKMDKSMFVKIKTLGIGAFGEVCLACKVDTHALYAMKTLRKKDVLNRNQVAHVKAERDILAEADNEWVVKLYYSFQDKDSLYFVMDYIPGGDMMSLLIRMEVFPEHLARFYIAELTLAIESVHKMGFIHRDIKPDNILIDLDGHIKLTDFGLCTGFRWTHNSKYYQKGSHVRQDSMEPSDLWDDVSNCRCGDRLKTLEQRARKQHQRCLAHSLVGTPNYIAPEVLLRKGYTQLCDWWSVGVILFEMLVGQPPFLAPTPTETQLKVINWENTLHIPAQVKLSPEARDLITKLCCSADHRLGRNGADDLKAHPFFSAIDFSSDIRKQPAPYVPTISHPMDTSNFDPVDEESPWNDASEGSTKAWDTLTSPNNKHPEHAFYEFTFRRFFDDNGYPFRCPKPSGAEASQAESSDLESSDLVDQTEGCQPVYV
# Assay: SelectScreen Kinase Profiling, single point inhibition and IC50 for off-target kinases
# Assay type: biochemical
# Settings: LATS2, LanthaScreen Binding
structure (smiles),measurement,setting,value
"N#Cc1cc(-c2ncnc(Nc3ccc(N4CCN(C5COC5)CC4)cc3)n2)ccc1OC1CCOCC1 [Compound 1, 5-(4-((4-(4-(oxetan-3-yl)piperazin-1-yl)phenyl)amino)-1,3,5-triazin-2-yl)-2-((tetrahydro-2H-pyran-4-yl)oxy)benzonitrile]",inhibition,read-out: % Inhibition 1,23%
same,inhibition,read-out: % Inhibition 2,25%
same,inhibition,read-out: % Inhibition Avg,24%
